Patent publication US10670605B2, “Cysteine reactive probes and uses thereof” (The Scripps Research Institute, priority 2015, dated 2020)
One block for each compound: values may come before it.

What was measured:
Assay in all cases: Competitive isoTOP-ABPP, cell lysates;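 as to isoTOP-ABPP reactivity profile ratio, P09211 C48: Heavy/light ratio DMSO over fragment-treated so higher means more cysteine engagement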;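 as to isoTOP-ABPP reactivity profile ratio, Q15084 C190: Heavy/light ratio DMSO over fragment-treated so higher means more cysteine engagement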
Type in all cases: binding
XPO1 C34 (O14980) = XPO1 C34 (O14980) (Homo sapiens, UniProt O14980); conditions: for isoTOP-ABPP ratio (reactivity profile), O14980_C34: 500 μm in-vitro ramos
Chain of XPO1 C34 (O14980) (O14980 whole entry): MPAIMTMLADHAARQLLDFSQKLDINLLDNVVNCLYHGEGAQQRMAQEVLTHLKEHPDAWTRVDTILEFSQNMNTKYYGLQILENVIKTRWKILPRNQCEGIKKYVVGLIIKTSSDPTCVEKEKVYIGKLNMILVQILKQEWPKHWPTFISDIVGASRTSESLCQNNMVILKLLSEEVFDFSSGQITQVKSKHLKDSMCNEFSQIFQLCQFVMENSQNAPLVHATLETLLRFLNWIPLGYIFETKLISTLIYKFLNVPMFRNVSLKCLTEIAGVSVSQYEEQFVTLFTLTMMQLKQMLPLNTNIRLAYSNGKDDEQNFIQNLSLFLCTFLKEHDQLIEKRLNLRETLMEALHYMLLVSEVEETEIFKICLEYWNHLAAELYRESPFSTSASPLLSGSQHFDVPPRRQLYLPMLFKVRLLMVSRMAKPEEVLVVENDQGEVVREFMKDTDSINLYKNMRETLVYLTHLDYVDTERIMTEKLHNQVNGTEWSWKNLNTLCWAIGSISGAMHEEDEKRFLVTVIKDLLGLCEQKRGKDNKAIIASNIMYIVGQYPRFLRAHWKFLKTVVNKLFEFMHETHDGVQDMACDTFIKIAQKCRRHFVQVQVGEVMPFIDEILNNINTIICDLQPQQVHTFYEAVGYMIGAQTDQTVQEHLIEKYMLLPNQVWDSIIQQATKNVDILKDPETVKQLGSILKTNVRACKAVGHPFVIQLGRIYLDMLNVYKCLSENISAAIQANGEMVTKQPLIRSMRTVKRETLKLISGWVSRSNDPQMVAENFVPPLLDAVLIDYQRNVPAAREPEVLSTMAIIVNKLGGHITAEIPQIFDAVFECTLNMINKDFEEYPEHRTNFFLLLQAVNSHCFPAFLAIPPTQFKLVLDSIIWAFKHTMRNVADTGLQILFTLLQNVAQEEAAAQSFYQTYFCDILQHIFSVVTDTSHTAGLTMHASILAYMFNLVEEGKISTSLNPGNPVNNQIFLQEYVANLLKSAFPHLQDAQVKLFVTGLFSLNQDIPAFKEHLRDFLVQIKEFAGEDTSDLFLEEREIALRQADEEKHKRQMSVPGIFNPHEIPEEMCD

PDIA6 C55 (Q15084) = target: T1, PDIA6 C55 (Q15084) (Homo sapiens, UniProt Q15084); conditions: for isoTOP-ABPP reactivity ratio, Q15084_C55 / isoTOP-ABPP reactivity profile ratio, Q15084_C55: 500 μm; for isoTOP-ABPP ratio (reactivity profile), Q15084_C55: 500 μm in-vitro ramos
T1 sequence (Q15084 20-440): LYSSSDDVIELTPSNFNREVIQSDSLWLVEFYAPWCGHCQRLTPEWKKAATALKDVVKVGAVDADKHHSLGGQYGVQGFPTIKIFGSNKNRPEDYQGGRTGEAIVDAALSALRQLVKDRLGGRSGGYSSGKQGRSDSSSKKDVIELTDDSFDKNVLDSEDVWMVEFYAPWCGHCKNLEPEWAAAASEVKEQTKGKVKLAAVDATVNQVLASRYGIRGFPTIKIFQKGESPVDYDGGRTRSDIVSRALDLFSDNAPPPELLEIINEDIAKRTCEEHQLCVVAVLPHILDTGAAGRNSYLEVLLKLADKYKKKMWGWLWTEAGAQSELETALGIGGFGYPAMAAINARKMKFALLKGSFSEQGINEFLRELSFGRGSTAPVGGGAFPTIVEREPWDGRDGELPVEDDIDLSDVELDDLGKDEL

GSTP1 C48 (P09211) = GSTP1 C48 (P09211) (Homo sapiens, UniProt P09211); conditions: for isoTOP-ABPP ratio (reactivity profile), P09211_C48: 500 μm in-vitro ramos;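 as to isoTOP-ABPP reactivity profile ratio, P09211 C48: Heavy/light ratio DMSO over fragment-treated so higher means more cysteine engagement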
Chain of GSTP1 C48 (P09211) (P09211 whole entry, the tested form may be a part): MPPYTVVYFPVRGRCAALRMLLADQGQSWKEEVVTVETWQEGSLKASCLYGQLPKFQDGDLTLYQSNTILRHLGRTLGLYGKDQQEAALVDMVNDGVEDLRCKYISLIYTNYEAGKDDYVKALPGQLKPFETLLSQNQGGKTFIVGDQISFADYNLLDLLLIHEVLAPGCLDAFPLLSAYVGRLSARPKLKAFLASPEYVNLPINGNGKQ

SMARCC2 C145 (Q8TAQ2) = SMARCC2 C145 (Q8TAQ2) (Homo sapiens, UniProt Q8TAQ2); conditions: for isoTOP-ABPP ratio (reactivity profile), Q8TAQ2_C145: 500 μm in-vitro ramos
Chain of SMARCC2 C145 (Q8TAQ2) (Q8TAQ2 whole entry, the tested form may be a part): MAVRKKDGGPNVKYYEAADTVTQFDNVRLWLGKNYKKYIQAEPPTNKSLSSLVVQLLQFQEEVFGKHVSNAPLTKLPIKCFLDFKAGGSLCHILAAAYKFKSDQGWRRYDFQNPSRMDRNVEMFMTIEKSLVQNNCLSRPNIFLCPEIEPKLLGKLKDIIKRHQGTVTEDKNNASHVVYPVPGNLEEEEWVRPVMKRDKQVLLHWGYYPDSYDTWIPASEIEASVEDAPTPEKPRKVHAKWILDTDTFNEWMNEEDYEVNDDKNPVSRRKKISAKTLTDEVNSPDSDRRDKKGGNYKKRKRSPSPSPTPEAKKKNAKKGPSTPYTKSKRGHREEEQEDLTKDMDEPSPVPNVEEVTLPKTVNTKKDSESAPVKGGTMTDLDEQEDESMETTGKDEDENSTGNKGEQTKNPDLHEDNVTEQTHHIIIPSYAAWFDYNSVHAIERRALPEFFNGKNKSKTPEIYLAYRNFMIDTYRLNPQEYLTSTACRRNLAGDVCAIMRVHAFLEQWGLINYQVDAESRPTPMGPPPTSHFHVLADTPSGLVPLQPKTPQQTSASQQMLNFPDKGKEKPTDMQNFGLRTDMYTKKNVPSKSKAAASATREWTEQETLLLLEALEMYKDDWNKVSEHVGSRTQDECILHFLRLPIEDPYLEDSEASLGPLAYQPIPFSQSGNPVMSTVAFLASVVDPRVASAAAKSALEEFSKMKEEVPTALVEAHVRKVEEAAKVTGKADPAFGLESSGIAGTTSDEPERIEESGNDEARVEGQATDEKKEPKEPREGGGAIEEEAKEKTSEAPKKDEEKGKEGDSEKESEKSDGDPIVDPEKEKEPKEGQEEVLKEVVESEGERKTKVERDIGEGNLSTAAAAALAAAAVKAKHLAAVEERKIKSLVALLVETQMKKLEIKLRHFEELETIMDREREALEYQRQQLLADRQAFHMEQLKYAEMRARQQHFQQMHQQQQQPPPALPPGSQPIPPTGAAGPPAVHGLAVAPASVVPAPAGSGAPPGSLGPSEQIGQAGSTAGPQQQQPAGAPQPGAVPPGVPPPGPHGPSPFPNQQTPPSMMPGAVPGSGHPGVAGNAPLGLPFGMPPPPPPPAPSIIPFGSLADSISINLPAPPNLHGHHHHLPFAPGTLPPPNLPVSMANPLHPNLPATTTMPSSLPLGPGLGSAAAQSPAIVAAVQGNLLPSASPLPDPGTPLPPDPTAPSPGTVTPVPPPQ

PDIA6 C190 (Q15084) = target: T2, PDIA6 C190 (Q15084) (Homo sapiens, UniProt Q15084); conditions: for isoTOP-ABPP ratio (reactivity profile), Q15084_C190: 500 μm in-vitro ramos;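 as to isoTOP-ABPP reactivity profile ratio, Q15084 C190: Heavy/light ratio DMSO over fragment-treated so higher means more cysteine engagement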
T2 sequence (Q15084 20-440): T1 sequence (Q15084 20-440)

UBE2S C118 (Q16763) = target: T3, UBE2S C118 (Q16763) (Homo sapiens, UniProt Q16763); conditions: for isoTOP-ABPP ratio (reactivity profile), Q16763_C118: 500 μm in-vitro ramos
T3 sequence (Q16763 1-222): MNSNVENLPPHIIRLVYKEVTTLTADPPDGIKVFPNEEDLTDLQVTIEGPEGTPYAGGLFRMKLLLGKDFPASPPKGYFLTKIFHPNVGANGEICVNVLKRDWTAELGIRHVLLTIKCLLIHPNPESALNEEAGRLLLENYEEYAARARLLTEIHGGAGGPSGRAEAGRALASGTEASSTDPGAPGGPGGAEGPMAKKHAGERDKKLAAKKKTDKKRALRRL

XPO1 C528 (O14980) = XPO1 C528 (O14980) (Homo sapiens, UniProt O14980); conditions: for isoTOP-ABPP ratio (reactivity profile), O14980_C528: 500 μm in-vitro ramos
Chain of XPO1 C528 (O14980) (O14980 whole entry): as the sequence (O14980 whole entry) above

ACAT1 C126 (P24752) = target: T4, ACAT1 C126 (P24752) (Homo sapiens, UniProt P24752)
T4 sequence (P24752 34-427): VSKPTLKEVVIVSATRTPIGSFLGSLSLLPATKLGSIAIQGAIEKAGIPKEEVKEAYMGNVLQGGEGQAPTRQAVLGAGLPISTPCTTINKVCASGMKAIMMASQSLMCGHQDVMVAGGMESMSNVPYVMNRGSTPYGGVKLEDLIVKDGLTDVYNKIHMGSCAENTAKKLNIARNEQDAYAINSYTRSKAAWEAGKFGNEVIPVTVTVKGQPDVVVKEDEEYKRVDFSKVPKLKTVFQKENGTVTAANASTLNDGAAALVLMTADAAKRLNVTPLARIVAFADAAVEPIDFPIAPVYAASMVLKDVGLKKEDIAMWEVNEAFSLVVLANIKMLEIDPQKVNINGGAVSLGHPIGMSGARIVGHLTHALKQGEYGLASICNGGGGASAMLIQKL

ACAT1 C119 (P24752) = target: T5, ACAT1 C119 (P24752) (Homo sapiens, UniProt P24752); conditions: for isoTOP-ABPP reactivity ratio, P24752_C119 / isoTOP-ABPP reactivity profile ratio, P24752_C119: 500 μm; for isoTOP-ABPP ratio (reactivity profile), P24752_C119: 500 μm in-vitro ramos
T5 sequence (P24752 34-427): T4 sequence (P24752 34-427)

isoTOP-ABPP reactivity ratio, O14980_C34 (XPO1 C34 (O14980); 500 μm, in-vitro_ramos): 1.0
isoTOP-ABPP reactivity ratio, O14980_C34 (XPO1 C34 (O14980); 500 μm, in-vitro_ramos_231): 1.0
isoTOP-ABPP reactivity ratio, Q15084_C55 (PDIA6 C55 (Q15084); in-vitro_ramos): 1.3
isoTOP-ABPP reactivity ratio, Q15084_C55 (PDIA6 C55 (Q15084); in-vitro_ramos_231): 1.0
isoTOP-ABPP reactivity ratio, P09211_C48 (GSTP1 C48 (P09211); 500 μm, in-vitro_ramos_231): 1.9
isoTOP-ABPP reactivity ratio, Q8TAQ2_C145 (SMARCC2 C145 (Q8TAQ2); 500 μm, in-vitro_ramos): 1.9
isoTOP-ABPP reactivity ratio, Q8TAQ2_C145 (SMARCC2 C145 (Q8TAQ2); 500 μm, in-vitro_ramos_231): 1.1
isoTOP-ABPP reactivity ratio, Q15084_C190 (PDIA6 C190 (Q15084); 500 μm, in-vitro_ramos_231): 1.1
isoTOP-ABPP reactivity ratio, Q16763_C118 (UBE2S C118 (Q16763); 500 μm, in-vitro_ramos): 1.0
isoTOP-ABPP reactivity ratio, Q16763_C118 (UBE2S C118 (Q16763); 500 μm, in-vitro_ramos_231): 1.0
isoTOP-ABPP reactivity ratio, O14980_C528 (XPO1 C528 (O14980); 500 μm, in-vitro_ramos_231): 1.0
isoTOP-ABPP reactivity ratio, P24752_C126 (ACAT1 C126 (P24752); 500 μm, in-vitro_ramos): 1.4
isoTOP-ABPP reactivity ratio, P24752_C126 (ACAT1 C126 (P24752); 500 μm, in-vitro_ramos_231): 1.0
isoTOP-ABPP reactivity ratio, P24752_C119 (ACAT1 C119 (P24752); in-vitro_ramos): 1.7
isoTOP-ABPP reactivity ratio, P24752_C119 (ACAT1 C119 (P24752); in-vitro_ramos_231): 1.0
Structure (SMILES): C=CC(=O)Nc1cc(F)c(N2CCN(C(=O)OC(C)(C)C)CC2)c(F)c1 [compound 38]

isoTOP-ABPP ratio (reactivity profile), O14980_C34 (XPO1 C34 (O14980)): 1.2
isoTOP-ABPP ratio Q15084_C55 (PDIA6 C55 (Q15084); 500 μM, invitro, 231): 0.8
isoTOP-ABPP ratio (reactivity profile), Q15084_C55 (PDIA6 C55 (Q15084)): 1.0
isoTOP-ABPP ratio, P09211_C48 (GSTP1 C48 (P09211); 500 μM, invitro, 231): 2.5
isoTOP-ABPP ratio (reactivity profile), P09211_C48 (GSTP1 C48 (P09211)): 1.3
isoTOP-ABPP ratio (reactivity profile), Q8TAQ2_C145 (SMARCC2 C145 (Q8TAQ2)): 1.2
isoTOP-ABPP ratio, Q15084_C190 (PDIA6 C190 (Q15084); 500 μM, invitro, 231): 0.9
isoTOP-ABPP ratio (reactivity profile), Q15084_C190 (PDIA6 C190 (Q15084)): 1.2
isoTOP-ABPP ratio (reactivity profile), Q16763_C118 (UBE2S C118 (Q16763)): 1.2
isoTOP-ABPP ratio O14980_C528 (XPO1 C528 (O14980); 500 μM, invitro, 231): 0.8
isoTOP-ABPP ratio (reactivity profile), O14980_C528 (XPO1 C528 (O14980)): 1.0
isoTOP-ABPP ratio, P24752_C126 (ACAT1 C126 (P24752); 500 μM, invitro, 231): 0.8
isoTOP-ABPP ratio P24752_C119 (ACAT1 C119 (P24752); 500 μM, invitro, 231): 1.0
isoTOP-ABPP ratio (reactivity profile), P24752_C119 (ACAT1 C119 (P24752)): 1.2
Structure (SMILES): C=CC(=O)N(Cc1cccnc1)c1ccc(Oc2ccccc2)c(C(F)(F)F)c1 [compound 15]

isoTOP-ABPP reactivity profile ratio, O14980_C34 (XPO1 C34 (O14980); 500 μm, in-vitro_ramos_231): 1.1
isoTOP-ABPP reactivity profile ratio, Q15084_C55 (PDIA6 C55 (Q15084); in-vitro_ramos): 20.0
isoTOP-ABPP reactivity profile ratio, Q15084_C55 (PDIA6 C55 (Q15084); in-vitro_ramos_231): 20.0
isoTOP-ABPP reactivity profile ratio, P09211_C48 (GSTP1 C48 (P09211); 500 μm, in-vitro_ramos): 2.2
isoTOP-ABPP reactivity profile ratio, P09211_C48 (GSTP1 C48 (P09211); 500 μm, in-vitro_ramos_231): 4.1
isoTOP-ABPP reactivity profile ratio, Q8TAQ2_C145 (SMARCC2 C145 (Q8TAQ2); 500 μm, in-vitro_ramos_231): 20.0
isoTOP-ABPP reactivity profile ratio, Q15084_C190 (PDIA6 C190 (Q15084); 500 μm, in-vitro_ramos_231): 20.0
isoTOP-ABPP reactivity profile ratio, Q16763_C118 (UBE2S C118 (Q16763); 500 μm, in-vitro_ramos): 1.0
isoTOP-ABPP reactivity profile ratio, O14980_C528 (XPO1 C528 (O14980); 500 μm, in-vitro_ramos_231): 4.6
isoTOP-ABPP reactivity profile ratio, P24752_C126 (ACAT1 C126 (P24752); 500 μm, in-vitro_ramos): 20.0
isoTOP-ABPP reactivity profile ratio, P24752_C119 (ACAT1 C119 (P24752); in-vitro_ramos): 1.1
isoTOP-ABPP reactivity profile ratio, P24752_C119 (ACAT1 C119 (P24752); in-vitro_ramos_231): 1.8
Structure (SMILES): COc1cc(NC(=O)CCl)cc(OC)c1 [compound 43]

isoTOP-ABPP ratio (reactivity profile), O14980_C34 (XPO1 C34 (O14980)): 1.1
isoTOP-ABPP ratio (reactivity profile), Q15084_C55 (PDIA6 C55 (Q15084)): 1.3
isoTOP-ABPP ratio (reactivity profile), P09211_C48 (GSTP1 C48 (P09211)): 1.6
isoTOP-ABPP ratio (reactivity profile), Q8TAQ2_C145 (SMARCC2 C145 (Q8TAQ2)): 5.4
isoTOP-ABPP ratio (reactivity profile), Q15084_C190 (PDIA6 C190 (Q15084)): 1.7
isoTOP-ABPP ratio (reactivity profile), Q16763_C118 (UBE2S C118 (Q16763)): 1.2
isoTOP-ABPP ratio (reactivity profile), O14980_C528 (XPO1 C528 (O14980)): 20.0
isoTOP-ABPP ratio (reactivity profile), P24752_C126 (ACAT1 C126 (P24752); 500 μm in-vitro ramos): 1.1
isoTOP-ABPP ratio (reactivity profile), P24752_C119 (ACAT1 C119 (P24752)): 1.3
Structure (SMILES): CC(Br)C(=O)Nc1cc(C(F)(F)F)cc(C(F)(F)F)c1 (centres unmarked) [compound 24]
